Laboratory results from patent US12226424B2, “Target protein degradation compounds, their anti-tumor use, their intermediates and use of intermediates” (ShanghaiTech University, priority 2018, dated 2025).

tested on: SR cells; experiment: Half inhibitory concentration (IC50) on ALK-positive SR cell proliferation (CCK-8); assay type: cell-based; conditions: Homo sapiens; SR cells, 72 h, CCK-8; read-out: IC50 on proliferation of ALK-positive cells SR
Method: ALK-positive SR cells (human large cell immunoblastic lymphoma) were purchased from the American Type Culture Collection (ATCC); H3122 cells (human non-small cell lung cancer) were from the Shanghai University of Science and Technology Lin Haifan's research group.
The cells used in this present disclosure were cultured in a 37° C. incubator containing 5% CO2.
SR cells were seeded in 100 μL RPMI1640 complete medium at a density of 10,000 cells/well. 100 μL of the inoculated cells were treated with 0.5 μL diluted PROTAD compound of the present disclosure to be tested at 10 successively decreasing concentrations (starting at the highest concentration of 10 μM; 5-fold serial dilutions) After the cells were treated with the drug for 72 h, cell viability was determined according to the CCK-8 reagent operating instructions. The negative control was DMSO, and the positive control was a commercial inhibitor. After CCK-8 treatment for 2 h, the value of O.D.450 was measured using a microplate reader.

| SMILES | IC50 |
| --- | --- |
| COc1cc(N2CCC(N3CCN(C)CC3)CC2)ccc1Nc1ncc(Cl)c(Nc2ccccc2P(C)(C)=O)n1 [Brigatinib, reference compound] | 10.6 nM |

same assay, conditions: Homo sapiens; SR cells, 72 h drug treatment, CCK-8; read-out: IC50 (nM)/ SR cell line

| SMILES | IC50 |
| --- | --- |
| COc1cc(N2CCC(NC(=O)CCCSc3cccc4c3CN(C3CCC(=O)NC3=O)C4=O)CC2)ccc1Nc1ncc(Cl)c(Nc2ccccc2P(C)(C)=O)n1 (stereo not drawn) [SIAIS219135, N-(1-(4-((5-chloro-4-((2-(dimethylphosphoryl)phenyl)amino)pyrimidin-2-yl)amino)-3-methoxyphenyl)piperidin-4-yl)-4-((2-(2,6-dioxopiperidin-3-yl)-1-oxoisoindolin-4-yl)thio)butanamide] | 0.33 ± 0.02 nM |
| CCc1cc2c(cc1N1CCC(N3CCN(C(=O)COCCOCCSc4cccc5c4CN(C4CCC(=O)NC4=O)C5=O)CC3)CC1)C(C)(C)c1[nH]c3cc(C#N)ccc3c1C2=O (stereo not drawn) [SIAIS249067, 8-(4-(4-(2-(2-(2-((2-(2,6-dioxopiperidin-3-yl)-1-oxoisoindolin-4-yl)thio)ethoxy)ethoxy)acetyl)piperazin-1-yl)piperidin-1-yl)-9-ethyl-6,6-dimethyl-11-oxo-6,11-dihydro-5H-benzo[b]carbazole-3-carbonitrile] | 0.38 ± 0.18 nM |
| COc1cc(N2CCC(NC(=O)COCCOCCOCCOCCSc3cccc4c3CN(C3CCC(=O)NC3=O)C4=O)CC2)ccc1Nc1ncc(Cl)c(Nc2ccccc2P(C)(C)=O)n1 (stereo not drawn) [SIAIS219142, N-(1-(4-((5-chloro-4-((2-(dimethylphosphoryl)phenyl)amino)pyrimidin-2-yl)amino)-3-methoxyphenyl)piperidin-4-yl)-14-((2-(2,6-dioxopiperidin-3-yl)-1-oxoisoindolin-4-yl)thio)-3,6,9,12-tetraoxatetradecan-1-amide] | 7 ± 1 nM |
| CCc1cc2c(cc1N1CCC(NC(=O)CSc3cccc4c3C(=O)N(C3CCC(=O)NC3=O)C4=O)CC1)C(C)(C)c1[nH]c3cc(C#N)ccc3c1C2=O (stereo not drawn) [SIAIS219012, N-(1-(3-cyano-9-ethyl-6,6-dimethyl-11-oxo-6,11-dihydro-5H-benzo[b]carbazol-8-yl)piperidin-4-yl)-2-((2-(2,6-dioxopiperidin-3-yl)-1,3-dioxoisoindolin-4-yl)thio)acetamide] | 146 nM |
| CCc1cc2c(cc1N1CCC(N3CCN(C(=O)CCCSc4cccc5c4CN(C4CCC(=O)NC4=O)C5=O)CC3)CC1)C(C)(C)c1[nH]c3cc(C#N)ccc3c1C2=O (stereo not drawn) [SIAIS262098, 8-(4-(4-(4-((2-(2,6-dioxopiperidin-3-yl)-1-oxoisoindolin-4-yl)thio)butanoyl)piperazin-1-yl)piperidin-1-yl)-9-ethyl-6,6-dimethyl-11-oxo-6,11-dihydro-5H-benzo[b]carbazole-3-carbonitrile] | 0.29 ± 0.21 nM |
| COc1cc(N2CCC(NC(=O)CCCCCSc3cccc4c3CN(C3CCC(=O)NC3=O)C4=O)CC2)ccc1Nc1ncc(Cl)c(Nc2ccccc2P(C)(C)=O)n1 (stereo not drawn) [SIAIS219137, N-(1-(4-((5-chloro-4-((2-(dimethylphosphoryl)phenyl)amino)pyrimidin-2-yl)amino)-3-methoxyphenyl)piperidin-4-yl)-6-((2-(2,6-dioxopiperidin-3-yl)-1-oxoisoindolin-4-yl)thio)hexanamide] | 0.48 ± 0.05 nM |
| COc1cc(N2CCC(N3CCN(C)CC3)CC2)ccc1Nc1ncc(Cl)c(Nc2ccccc2P(C)(C)=O)n1 [Brigatinib, reference compound] | 2.1 ± 1.2 nM |
| COc1cc(N2CCC(NC(=O)CCSc3cccc4c3CN(C3CCC(=O)NC3=O)C4=O)CC2)ccc1Nc1ncc(Cl)c(Nc2ccccc2P(C)(C)=O)n1 (stereo not drawn) [SIAIS219134, N-(1-(4-((5-chloro-4-((2-(dimethylphosphoryl)phenyl)amino)pyrimidin-2-yl)amino)-3-methoxyphenyl)piperidin-4-yl)-3-((2-(2,6-dioxopiperidin-3-yl)-1-oxoisoindolin-4-yl)thio)propanamide] | 2.7 ± 0.8 nM |
| CCc1cc2c(cc1N1CCC(N3CCN(C(=O)COCCOCCOCCOCCOCCSc4cccc5c4CN(C4CCC(=O)NC4=O)C5=O)CC3)CC1)C(C)(C)c1[nH]c3cc(C#N)ccc3c1C2=O (stereo not drawn) [SIAIS249070, 8-(4-(4-(17-((2-(2,6-dioxopiperidin-3-yl)-1-oxoisoindolin-4-yl)thio)-3,6,9,12,15-pentaoxaheptadecanoyl)piperazin-1-yl)piperidin-1-yl)-9-ethyl-6,6-dimethyl-11-oxo-6,11-dihydro-5H-benzo[b]carbazole-3-carbonitrile] | 0.43 ± 0.11 nM |
| CCc1cc2c(cc1N1CCN(C3CCN(C(=O)CSc4cccc5c4C(=O)N(C4CCC(=O)NC4=O)C5=O)CC3)CC1)C(C)(C)c1[nH]c3cc(C#N)ccc3c1C2=O (stereo not drawn) [SIAIS219005, 8-(4-(1-(2-((2-(2,6-dioxopiperidin-3-yl)-1,3-dioxoisoindolin-4-yl)thio)acetyl)piperidin-4-yl)piperazin-1-yl)-9-ethyl-6,6-dimethyl-11-oxo-6,11-dihydro-5H-benzo[b]carbazole-3-carbonitrile] | 8.7 nM |
| CCc1cc2c(cc1N1CCC(NC(=O)CCCCCSc3cccc4c3C(=O)N(C3CCC(=O)NC3=O)C4=O)CC1)C(C)(C)c1[nH]c3cc(C#N)ccc3c1C2=O (stereo not drawn) [SIAIS219014, N-(1-(3-cyano-9-ethyl-6,6-dimethyl-11-oxo-6,11-dihydro-5H-benzo[b]carbazol-8-yl)piperidin-4-yl)-6-((2-(2,6-dioxopiperidin-3-yl)-1,3-dioxoisoindolin-4-yl)thio)hexanamide] | 101 nM |
| CCc1cc2c(cc1N1CCC(N3CCN(C(=O)CCCCCSc4cccc5c4C(=O)N(C4CCC(=O)NC4=O)C5=O)CC3)CC1)C(C)(C)c1[nH]c3cc(C#N)ccc3c1C2=O (stereo not drawn) [SIAIS219007, 8-(4-(4-(6-((2-(2,6-dioxopiperidin-3-yl)-1,3-dioxoisoindolin-4-yl)thio)hexanoyl)piperazin-1-yl)piperidin-1-yl)-9-ethyl-6,6-dimethyl-11-oxo-6,11-dihydro-5H-benzo[b]carbazole-3-carbonitrile] | 50.1 nM |
| COc1cc(N2CCC(NC(=O)COCCSc3cccc4c3CN(C3CCC(=O)NC3=O)C4=O)CC2)ccc1Nc1ncc(Cl)c(Nc2ccccc2P(C)(C)=O)n1 (stereo not drawn) [SIAIS219139, N-(1-(4-((5-chloro-4-((2-(dimethylphosphoryl)phenyl)amino)pyrimidin-2-yl)amino)-3-methoxyphenyl)piperidin-4-yl)-2-(2-((2-(2,6-dioxopiperidin-3-yl)-1-oxoisoindolin-4-yl)thio)ethoxy)acetamide] | 1.08 ± 0.1 nM |
| COc1cc(N2CCC(NC(=O)CCCCCCSc3cccc4c3CN(C3CCC(=O)NC3=O)C4=O)CC2)ccc1Nc1ncc(Cl)c(Nc2ccccc2P(C)(C)=O)n1 (stereo not drawn) [SIAIS219138, N-(1-(4-((5-chloro-4-((2-(dimethylphosphoryl)phenyl)amino)pyrimidin-2-yl)amino)-3-methoxyphenyl)piperidin-4-yl)-7-((2-(2,6-dioxopiperidin-3-yl)-1-oxoisoindolin-4-yl)thio)heptanamide] | 0.29 ± 0.01 nM |
| CCc1cc2c(cc1N1CCC(NC(=O)COCCOCCSc3cccc4c3C(=O)N(C3CCC(=O)NC3=O)C4=O)CC1)C(C)(C)c1[nH]c3cc(C#N)ccc3c1C2=O (stereo not drawn) [SIAIS219022, N-(1-(3-cyano-9-ethyl-6,6-dimethyl-11-oxo-6,11-dihydro-5H-benzo[b]carbazol-8-yl)piperidin-4-yl)-2-(2-(2-((2-(2,6-dioxopiperidin-3-yl)-1,3-dioxoisoindolin-4-yl)thio)ethoxy)ethoxy)acetamide] | 80.5 nM |
| CCc1cc2c(cc1N1CCC(N3CCN(C(=O)COCCSc4cccc5c4CN(C4CCC(=O)NC4=O)C5=O)CC3)CC1)C(C)(C)c1[nH]c3cc(C#N)ccc3c1C2=O (stereo not drawn) [SIAIS249066, 8-(4-(4-(2-(2-((2-(2,6-dioxopiperidin-3-yl)-1-oxoisoindolin-4-yl)thio)ethoxy)acetyl)piperazin-1-yl)piperidin-1-yl)-9-ethyl-6,6-dimethyl-11-oxo-6,11-dihydro-5H-benzo[b]carbazole-3-carbonitrile] | 0.17 ± 0.14 nM |
| CCc1cc2c(cc1N1CCC(NC(=O)COCCSc3cccc4c3CN(C3CCC(=O)NC3=O)C4=O)CC1)C(C)(C)c1[nH]c3cc(C#N)ccc3c1C2=O (stereo not drawn) [SIAIS262163, N-(1-(3-cyano-9-ethyl-6,6-dimethyl-11-oxo-6,11-dihydro-5H-benzo[b]carbazol-8-yl)piperidin-4-yl)-2-(2-((2-(2,6-dioxopiperidin-3-yl)-1-oxoisoindolin-4-yl)thio)ethoxy)acetamide] | 1.6 nM |
| CCc1cc2c(cc1N1CCC(NC(=O)CCCCCSc3cccc4c3CN(C3CCC(=O)NC3=O)C4=O)CC1)C(C)(C)c1[nH]c3cc(C#N)ccc3c1C2=O (stereo not drawn) [SIAIS262162, N-(1-(3-cyano-9-ethyl-6,6-dimethyl-11-oxo-6,11-dihydro-5H-benzo[b]carbazol-8-yl)piperidin-4-yl)-6-((2-(2,6-dioxopiperidin-3-yl)-1-oxoisoindolin-4-yl)thio)hexanamide] | 11.3 nM |
| COc1cc(N2CCC(NC(=O)CCCCSc3cccc4c3CN(C3CCC(=O)NC3=O)C4=O)CC2)ccc1Nc1ncc(Cl)c(Nc2ccccc2P(C)(C)=O)n1 (stereo not drawn) [SIAIS219136, N-(1-(4-((5-chloro-4-((2-(dimethylphosphoryl)phenyl)amino)pyrimidin-2-yl)amino)-3-methoxyphenyl)piperidin-4-yl)-5-((2-(2,6-dioxopiperidin-3-yl)-1-oxoisoindolin-4-yl)thio)pentanamide] | 0.43 ± 0.09 nM |
| COc1cc(N2CCC(NC(=O)COCCOCCOCCSc3cccc4c3CN(C3CCC(=O)NC3=O)C4=O)CC2)ccc1Nc1ncc(Cl)c(Nc2ccccc2P(C)(C)=O)n1 (stereo not drawn) [SIAIS219141, N-(1-(4-((5-chloro-4-((2-(dimethylphosphoryl)phenyl)amino)pyrimidin-2-yl)amino)-3-methoxyphenyl)piperidin-4-yl)-2-(2-(2-(2-((2-(2,6-dioxopiperidin-3-yl)-1-oxoisoindolin-4-yl)thio)ethoxy)ethoxy)ethoxy)acetamide] | 5 ± 0.71 nM |
